Key:
[1] = tested on: CPG-tel26 (DNA, G4) TTAGGGTTAGGGTTAGGGTTAGGGTT; experiment: G4-CPG affinity chromatography; details: 50 mM KCl; 10% DMSO, 10% ethanol; 60 μM compound; error ±2%
[2] = tested on: CPG-c-myc (DNA, G4) TGGGGAGGGTGGGGAGGGTGGGGAAGGTGGGGA; experiment: G4-CPG affinity chromatography; details: 50 mM KCl; 10% DMSO, 10% ethanol; 60 μM compound; error ±2%
[3] = tested on: CPG-ds27 (DNA, hairpin) CGCGAATTCGCGTTTCGCGAATTCGCG; experiment: G4-CPG affinity chromatography; details: 50 mM KCl; 10% DMSO, 10% ethanol; 60 μM compound; error ±2%
[4] = tested on: tel26 (DNA, G4) TTAGGGTTAGGGTTAGGGTTAGGGTT; experiment: fluorescence titration (ligand quenching); details: 20 mM KCl, 5 mM potassium phosphate; pH 7, 20 °C; 2 μM ligand; independent equivalent-sites fit; average over multiple binding events
[5] = tested on: Pu22 (DNA, G4) TGAGGGTGGGTAGGGTGGGTAA; experiment: fluorescence titration (ligand quenching); details: 20 mM KCl, 5 mM potassium phosphate; pH 7, 20 °C; 2 μM ligand; independent equivalent-sites fit; average over multiple binding events
[6] = tested on: ds12 (DNA, duplex) CGCGAATTCGCG; experiment: fluorescence titration (ligand quenching); details: 20 mM KCl, 5 mM potassium phosphate; pH 7, 20 °C; 2 μM ligand; independent equivalent-sites fit; average over multiple binding events
[7] = tested on: Pu22 (DNA, G4) TGAGGGTGGGTAGGGTGGGTAA; experiment: CD melting (265 nm); details: no added metal cations; 10 mM Tris-HCl, pH 7; 2 μM DNA, 20 μM ligand (10 equiv)

SMILES | Bound Ligand (%) [1] [%] | Bound Ligand (%) [2] [%] | Bound Ligand (%) [3] [%] | Kb [4] | Kb [5] | Kb [6] | ΔTm [7]
C=CC12C(=O)C(C)(O)C(CC1c1cc(C)cc3c1-c1ccc(O)c(C)c1CC3)C1=C2c2ccc(OC)c(C)c2CC1 (stereo not shown) | 0 | 0 | 0 | – | – | – | –
C=CC12C(=O)C(C)(O)C3CC1c1c4c(cc(C)c1C31CCc3c(ccc(O)c3C)C21O)CCc1c-4ccc(O)c1C (stereo not shown) | 48 | 56 | 38 | – | – | – | –
C=CC12C3=C(CCc4c3ccc(O)c4C)C(CC1c1cc(C)cc3c1-c1ccc(O)c(C)c1CC3)C(C)(O)C2O (stereo not shown) | 19 | 18 | 0 | (2.3 ± 0.9) × 10^6 M^-1 | (4.4 ± 0.7) × 10^5 M^-1 | (6.0 ± 1.7) × 10^5 M^-1 | –
C=Cc1c(C)c(O)cc2c1-c1ccc(O)c(C)c1CC2 | 2 | 4 | 0 | – | – | – | –
C=Cc1c(C)c(O[C@@H]2O[C@H](CO)[C@@H](O)[C@H](O)[C@H]2O)cc2c1-c1ccc(O)c(C)c1CC2 | 0 | 3 | 0 | – | – | – | –
C=Cc1c(C)c(O[C@H]2O[C@H](CO)[C@@H](O)[C@H](O)[C@H]2O)cc2c1-c1ccc(O)c(C)c1CC2 | 0 | 0 | 0 | – | – | – | –
Cc1c(O)cc2c3c1CCc1cc(O[C@H]4O[C@H](CO)[C@@H](O)[C@H](O)[C@H]4O)c(C)c(c1-3)CC2 | 9 | 8 | 2 | – | – | – | +4 °C
